{
  "source": "ChEMBL document CHEMBL4304811",
  "about": "“Development of a Water-Soluble Indolylmaleimide Derivative IM-93 Showing Dual Inhibition of Ferroptosis and NETosis” (ACS Med Chem Lett, 2019)",
  "key": {"[1]": {"target": "5'-AMP-activated protein kinase catalytic subunit alpha-2 (Homo sapiens) (UniProt P54646)", "assay": "Binding affinity to wild-type human partial length AMPK alpha2 (M1 to E306 residues) expressed in bacterial expression system assessed as residual binding level at 10 uM by Kinomescan method relative to control"}, "[2]": {"target": "Leucine-rich repeat serine/threonine-protein kinase 2 (Homo sapiens) (UniProt Q5S007)", "assay": "Binding affinity to wild-type human partial length LRRK2 (H970 to E2527 residues) expressed in mammalian expression system assessed as residual binding level at 10 uM by Kinomescan method relative to control"}, "[3]": {"target": "Tyrosine-protein kinase BTK (Homo sapiens) (UniProt Q06187)", "sequence (Q06187 whole entry, the tested form may be a part)": "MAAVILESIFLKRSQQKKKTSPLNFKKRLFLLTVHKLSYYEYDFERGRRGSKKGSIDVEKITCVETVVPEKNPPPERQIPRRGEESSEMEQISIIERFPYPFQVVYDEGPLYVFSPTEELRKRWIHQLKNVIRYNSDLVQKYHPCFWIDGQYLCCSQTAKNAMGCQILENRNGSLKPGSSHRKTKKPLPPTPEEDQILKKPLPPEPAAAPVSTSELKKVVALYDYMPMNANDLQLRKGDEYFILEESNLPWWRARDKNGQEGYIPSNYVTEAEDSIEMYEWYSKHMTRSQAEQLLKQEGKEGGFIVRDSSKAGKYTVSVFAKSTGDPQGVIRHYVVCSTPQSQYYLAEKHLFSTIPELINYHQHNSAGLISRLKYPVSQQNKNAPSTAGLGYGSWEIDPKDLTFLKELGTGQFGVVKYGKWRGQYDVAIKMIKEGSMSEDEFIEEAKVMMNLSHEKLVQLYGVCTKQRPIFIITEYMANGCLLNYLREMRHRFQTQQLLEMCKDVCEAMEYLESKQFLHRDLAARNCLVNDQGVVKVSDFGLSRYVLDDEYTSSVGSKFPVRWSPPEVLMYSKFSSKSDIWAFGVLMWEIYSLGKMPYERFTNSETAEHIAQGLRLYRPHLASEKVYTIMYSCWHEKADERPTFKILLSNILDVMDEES", "assay": "Binding affinity to wild-type human full length BTK (M1 to S659 residues) expressed in mammalian expression system assessed as residual binding level at 10 uM by Kinomescan method relative to control"}, "[4]": {"target": "Serine/threonine-protein kinase 4 (Homo sapiens) (UniProt Q13043)", "assay": "Binding affinity to wild-type human full length MST1 (M1 to F487 residues) expressed in bacterial expression system assessed as residual binding level at 10 uM by Kinomescan method relative to control"}, "[5]": {"target": "Receptor-type tyrosine-protein kinase FLT3 (Homo sapiens) (UniProt P36888)", "assay": "Binding affinity to wild-type human partial length FLT3 (V592 to Y969 residues) expressed in bacterial expression system assessed as residual binding level at 10 uM by Kinomescan method relative to control"}, "[6]": {"target": "Tyrosine-protein kinase ITK/TSK (Homo sapiens) (UniProt Q08881)", "assay": "Binding affinity to wild-type human partial length ITK (R335 to L620 residues) expressed in bacterial expression system assessed as residual binding level at 10 uM by Kinomescan method relative to control"}, "[7]": {"test_system": "Phosphatidylinositol 4,5-bisphosphate 3-kinase catalytic subunit alpha isoform (Homo sapiens), P42336 [E542K]", "assay": "Binding affinity to human partial length PIK3CA E542K mutant (R108 to N1068 residues) expressed in mammalian expression system assessed as residual binding level at 10 uM by Kinomescan method relative to control"}, "[8]": {"target": "Serine/threonine-protein kinase 33 (Homo sapiens) (UniProt Q9BYT3)", "assay": "Binding affinity to wild-type human full length STK33 (M1 to L514 residues) expressed in bacterial expression system assessed as residual binding level at 10 uM by Kinomescan method relative to control"}, "[9]": {"target": "Interleukin-1 receptor-associated kinase 1 (Homo sapiens) (UniProt P51617)", "sequence (P51617 whole entry, looked up, the tested form may be a part)": "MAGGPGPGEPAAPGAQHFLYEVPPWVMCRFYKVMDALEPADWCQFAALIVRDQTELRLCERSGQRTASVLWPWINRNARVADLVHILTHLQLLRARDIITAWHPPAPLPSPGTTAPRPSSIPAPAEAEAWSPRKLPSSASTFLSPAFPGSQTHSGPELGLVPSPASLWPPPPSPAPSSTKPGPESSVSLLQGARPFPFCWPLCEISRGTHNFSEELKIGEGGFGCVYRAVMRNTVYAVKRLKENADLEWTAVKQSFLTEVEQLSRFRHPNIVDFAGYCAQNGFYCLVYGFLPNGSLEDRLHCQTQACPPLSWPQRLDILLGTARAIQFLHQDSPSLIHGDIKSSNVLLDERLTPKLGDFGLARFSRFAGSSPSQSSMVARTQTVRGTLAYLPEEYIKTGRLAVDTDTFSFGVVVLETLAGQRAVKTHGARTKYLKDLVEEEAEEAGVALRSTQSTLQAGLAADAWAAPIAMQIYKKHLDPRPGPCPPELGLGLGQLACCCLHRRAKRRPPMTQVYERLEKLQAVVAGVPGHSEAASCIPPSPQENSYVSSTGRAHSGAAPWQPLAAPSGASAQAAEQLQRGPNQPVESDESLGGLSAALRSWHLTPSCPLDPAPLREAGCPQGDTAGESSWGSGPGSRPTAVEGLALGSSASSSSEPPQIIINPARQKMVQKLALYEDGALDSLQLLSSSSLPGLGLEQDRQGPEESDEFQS", "assay": "Binding affinity to wild-type human partial length IRAK1 (R194 to S712 residues) expressed in mammalian expression system assessed as residual binding level at 10 uM by Kinomescan method relative to control"}, "[10]": {"target": "Casein kinase I isoform delta (Homo sapiens) (UniProt P48730)", "sequence (P48730 whole entry, looked up, the tested form may be a part, canonical isoform)": "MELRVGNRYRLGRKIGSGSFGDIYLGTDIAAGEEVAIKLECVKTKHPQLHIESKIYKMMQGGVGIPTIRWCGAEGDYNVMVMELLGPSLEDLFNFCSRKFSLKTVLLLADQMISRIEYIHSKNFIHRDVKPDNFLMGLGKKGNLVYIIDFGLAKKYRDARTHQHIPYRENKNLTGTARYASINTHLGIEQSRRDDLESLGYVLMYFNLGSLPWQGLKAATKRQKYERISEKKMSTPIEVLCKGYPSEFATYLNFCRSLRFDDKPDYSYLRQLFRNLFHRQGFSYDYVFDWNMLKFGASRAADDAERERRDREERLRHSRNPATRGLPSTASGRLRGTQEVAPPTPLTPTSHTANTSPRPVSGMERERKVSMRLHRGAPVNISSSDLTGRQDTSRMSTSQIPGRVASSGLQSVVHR", "assay": "Binding affinity to wild-type human full length CSNK1D (M1 to K409 residues) expressed in bacterial expression system assessed as residual binding level at 10 uM by Kinomescan method relative to control"}, "[11]": {"target": "Vascular endothelial growth factor receptor 1 (Homo sapiens) (UniProt P17948)", "assay": "Binding affinity to wild-type human partial length FLT1 (R781 to F1239 residues) expressed in bacterial expression system assessed as residual binding level at 10 uM by Kinomescan method relative to control"}, "[12]": {"target": "SNF-related serine/threonine-protein kinase (Homo sapiens) (UniProt Q9NRH2)", "sequence (Q9NRH2 whole entry, the tested form may be a part)": "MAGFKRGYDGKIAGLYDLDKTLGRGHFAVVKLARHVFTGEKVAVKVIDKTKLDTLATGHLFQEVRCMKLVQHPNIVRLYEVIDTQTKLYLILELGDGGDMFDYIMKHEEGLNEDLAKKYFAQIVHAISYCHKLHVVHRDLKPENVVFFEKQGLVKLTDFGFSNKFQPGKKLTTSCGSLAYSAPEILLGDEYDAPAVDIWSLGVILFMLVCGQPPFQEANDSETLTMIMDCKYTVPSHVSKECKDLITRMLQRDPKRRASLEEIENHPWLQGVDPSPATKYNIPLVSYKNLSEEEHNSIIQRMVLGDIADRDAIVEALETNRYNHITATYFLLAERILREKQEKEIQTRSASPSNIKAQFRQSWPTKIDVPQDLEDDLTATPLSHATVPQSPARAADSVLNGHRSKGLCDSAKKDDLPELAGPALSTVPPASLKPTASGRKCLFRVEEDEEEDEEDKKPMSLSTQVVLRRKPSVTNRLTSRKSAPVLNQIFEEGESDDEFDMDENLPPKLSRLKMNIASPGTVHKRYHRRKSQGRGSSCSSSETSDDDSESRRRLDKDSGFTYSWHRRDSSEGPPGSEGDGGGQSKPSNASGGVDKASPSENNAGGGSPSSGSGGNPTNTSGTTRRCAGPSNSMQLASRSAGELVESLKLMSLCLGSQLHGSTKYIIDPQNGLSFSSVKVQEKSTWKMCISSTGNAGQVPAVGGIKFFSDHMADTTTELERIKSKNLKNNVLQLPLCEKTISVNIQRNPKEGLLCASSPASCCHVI", "assay": "Binding affinity to wild-type human partial length SNRK (M1 to E339 residues) expressed in mammalian expression system assessed as residual binding level at 10 uM by Kinomescan method relative to control"}, "[13]": {"target": "Serine/threonine-protein kinase 38-like (Homo sapiens) (UniProt Q9Y2H1)", "sequence (Q9Y2H1 2-464 limits assumed)": "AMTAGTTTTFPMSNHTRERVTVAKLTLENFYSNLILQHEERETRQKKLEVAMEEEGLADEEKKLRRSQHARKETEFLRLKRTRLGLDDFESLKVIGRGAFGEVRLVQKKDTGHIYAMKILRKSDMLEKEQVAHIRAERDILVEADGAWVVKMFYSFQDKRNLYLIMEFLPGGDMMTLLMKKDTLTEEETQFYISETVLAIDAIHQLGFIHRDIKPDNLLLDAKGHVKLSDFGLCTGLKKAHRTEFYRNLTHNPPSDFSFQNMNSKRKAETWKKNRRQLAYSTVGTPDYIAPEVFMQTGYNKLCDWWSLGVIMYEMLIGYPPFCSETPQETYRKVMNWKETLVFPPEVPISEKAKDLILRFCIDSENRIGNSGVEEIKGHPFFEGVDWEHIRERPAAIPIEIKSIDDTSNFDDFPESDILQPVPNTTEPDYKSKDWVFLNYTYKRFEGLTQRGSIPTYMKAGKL", "assay": "Binding affinity to wild-type human partial length NDR2 (N34 to E447 residues) expressed in bacterial expression system assessed as residual binding level at 10 uM by Kinomescan method relative to control"}, "[14]": {"target": "Mast/stem cell growth factor receptor Kit (Homo sapiens) (UniProt P10721)", "assay": "Binding affinity to wild-type human partial length autoinhibited KIT (Y545 to D952 residues) expressed in mammalian expression system assessed as residual binding level at 10 uM by Kinomescan method relative to control"}, "[15]": {"test_system": "ALK tyrosine kinase receptor (Homo sapiens), Q9UM73 [L1196M]", "assay": "Binding affinity to […] human partial length ALK L1196M mutant (I1088 to E1409 residues) expressed in mammalian expression system assessed as residual binding level at 10 uM by Kinomescan method relative to control"}, "[16]": {"assay": "Stability of compound in D2O at 0.012 mmol followed by TBHP addition measured after 24 hrs by 1H-NMR spectroscopy", "assay_type": "physicochemical"}, "[17]": {"test_system": "Epidermal growth factor receptor (Homo sapiens), P00533 [G719C]", "assay": "Binding affinity to human partial length EGFR G719C mutant (R669 to V1011 residues) expressed in bacterial expression system assessed as residual binding level at 10 uM by Kinomescan method relative to control"}, "[18]": {"target": "TRAF2 and NCK-interacting protein kinase (Homo sapiens) (UniProt Q9UKE5)", "sequence (Q9UKE5 whole entry, looked up, the tested form may be a part)": "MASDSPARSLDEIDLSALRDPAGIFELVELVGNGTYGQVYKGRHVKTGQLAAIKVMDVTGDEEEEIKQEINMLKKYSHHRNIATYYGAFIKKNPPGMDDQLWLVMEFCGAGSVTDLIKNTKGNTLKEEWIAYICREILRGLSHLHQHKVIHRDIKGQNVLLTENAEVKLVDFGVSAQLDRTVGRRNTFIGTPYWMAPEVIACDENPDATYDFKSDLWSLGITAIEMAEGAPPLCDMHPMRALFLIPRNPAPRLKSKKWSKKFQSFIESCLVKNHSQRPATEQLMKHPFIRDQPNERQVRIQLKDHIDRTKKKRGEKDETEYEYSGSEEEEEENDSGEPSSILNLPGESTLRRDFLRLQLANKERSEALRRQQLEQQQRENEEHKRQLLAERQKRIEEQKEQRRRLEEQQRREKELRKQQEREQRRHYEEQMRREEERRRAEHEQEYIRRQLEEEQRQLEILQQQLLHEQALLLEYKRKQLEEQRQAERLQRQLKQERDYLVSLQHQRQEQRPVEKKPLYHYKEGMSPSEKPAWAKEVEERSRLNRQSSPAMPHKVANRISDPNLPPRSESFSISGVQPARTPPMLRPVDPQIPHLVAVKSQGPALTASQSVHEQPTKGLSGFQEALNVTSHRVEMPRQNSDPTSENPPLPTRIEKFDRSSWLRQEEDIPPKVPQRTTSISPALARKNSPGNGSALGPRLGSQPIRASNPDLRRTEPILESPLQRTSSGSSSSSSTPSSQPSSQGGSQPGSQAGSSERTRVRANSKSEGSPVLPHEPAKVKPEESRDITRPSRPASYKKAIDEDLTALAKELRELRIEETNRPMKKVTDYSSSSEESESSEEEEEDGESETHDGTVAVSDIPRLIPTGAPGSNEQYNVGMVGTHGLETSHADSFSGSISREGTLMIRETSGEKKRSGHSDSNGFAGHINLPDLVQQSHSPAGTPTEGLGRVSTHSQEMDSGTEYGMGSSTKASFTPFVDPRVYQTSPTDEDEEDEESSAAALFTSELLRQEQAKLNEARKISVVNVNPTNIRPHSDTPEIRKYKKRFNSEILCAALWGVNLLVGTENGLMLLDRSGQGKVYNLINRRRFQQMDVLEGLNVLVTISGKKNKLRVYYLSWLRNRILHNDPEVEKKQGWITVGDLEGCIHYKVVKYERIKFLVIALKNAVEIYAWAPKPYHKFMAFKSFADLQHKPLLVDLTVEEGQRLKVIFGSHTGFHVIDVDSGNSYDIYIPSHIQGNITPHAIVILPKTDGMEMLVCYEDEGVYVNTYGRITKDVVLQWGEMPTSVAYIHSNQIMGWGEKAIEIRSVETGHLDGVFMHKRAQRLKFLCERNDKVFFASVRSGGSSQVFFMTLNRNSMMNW", "assay": "Binding affinity to wild-type human partial length TNIK (D4 to K311 residues) expressed in bacterial expression system assessed as residual binding level at 10 uM by Kinomescan method relative to control"}, "[19]": {"target": "TGF-beta receptor type-1 (Homo sapiens) (UniProt P36897)", "assay": "Binding affinity to wild-type human partial length TGFBR1 (D179 to M503 residues) expressed in bacterial expression system assessed as residual binding level at 10 uM by Kinomescan method relative to control"}, "[20]": {"target": "Mitotic checkpoint serine/threonine-protein kinase BUB1 (Homo sapiens) (UniProt O43683)", "assay": "Binding affinity to wild-type human partial length BUB1 (Q724 to K1085 residues) expressed in mammalian expression system assessed as residual binding level at 10 uM by Kinomescan method relative to control"}, "[21]": {"target": "Tyrosine-protein kinase ZAP-70 (Homo sapiens) (UniProt P43403)", "sequence (P43403 whole entry, the tested form may be a part)": "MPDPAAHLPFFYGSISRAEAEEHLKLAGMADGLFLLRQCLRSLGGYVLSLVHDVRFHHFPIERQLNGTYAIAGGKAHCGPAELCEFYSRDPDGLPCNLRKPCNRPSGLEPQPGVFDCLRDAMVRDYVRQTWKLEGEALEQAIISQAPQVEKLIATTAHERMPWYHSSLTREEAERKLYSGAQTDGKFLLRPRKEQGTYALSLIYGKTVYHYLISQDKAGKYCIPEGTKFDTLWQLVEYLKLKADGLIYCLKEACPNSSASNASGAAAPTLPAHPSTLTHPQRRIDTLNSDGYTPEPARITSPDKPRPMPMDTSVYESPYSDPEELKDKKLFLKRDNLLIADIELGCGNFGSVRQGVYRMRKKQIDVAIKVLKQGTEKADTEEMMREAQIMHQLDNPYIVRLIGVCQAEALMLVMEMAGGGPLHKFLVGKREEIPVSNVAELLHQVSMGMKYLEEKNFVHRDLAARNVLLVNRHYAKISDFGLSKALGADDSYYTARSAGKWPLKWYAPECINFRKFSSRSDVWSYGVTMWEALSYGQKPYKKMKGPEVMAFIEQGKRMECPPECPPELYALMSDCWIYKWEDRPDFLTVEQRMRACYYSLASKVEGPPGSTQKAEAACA", "assay": "Binding affinity to wild-type human partial length ZAP70 (D20 to G299 residues) expressed in mammalian expression system assessed as residual binding level at 10 uM by Kinomescan method relative to control"}, "[22]": {"target": "Phosphatidylinositol 4-phosphate 5-kinase type-1 alpha (Homo sapiens) (UniProt Q99755)", "assay": "Binding affinity to wild-type human full length PIP5K1A (M1 to H562 residues) expressed in bacterial expression system assessed as residual binding level at 10 uM by Kinomescan method relative to control"}, "[23]": {"target": "Serine/threonine-protein kinase 26 (Homo sapiens) (UniProt Q9P289)", "assay": "Binding affinity to wild-type human full length MST4 (M1 to P416 residues) expressed in mammalian expression system assessed as residual binding level at 10 uM by Kinomescan method relative to control"}, "[24]": {"target": "Cyclin-dependent kinase 7 (Homo sapiens) (UniProt P50613)", "assay": "Binding affinity to wild-type human full length CDK7 (M1 to L344 residues) expressed in mammalian expression system assessed as residual binding level at 10 uM by Kinomescan method relative to control"}},
  "data": [
    {"compound": "CC(C)N1C(=O)C(NCCCN(C)C)=C(c2cn(C)c3ccccc23)C1=O.Cl", "values": [
      {"measurement": "Activity", "setting": "[1]", "result": 89, "unit": "%"},
      {"measurement": "Activity", "setting": "[2]", "result": 94, "unit": "%"},
      {"measurement": "Activity", "setting": "[3]", "result": 100, "unit": "%"},
      {"measurement": "Activity", "setting": "[4]", "result": 93, "unit": "%"},
      {"measurement": "Activity", "setting": "[5]", "result": 100, "unit": "%"},
      {"measurement": "Activity", "setting": "[6]", "result": 100, "unit": "%"},
      {"measurement": "Activity", "setting": "[7]", "result": 87, "unit": "%"},
      {"measurement": "Activity", "setting": "[8]", "result": 100, "unit": "%"},
      {"measurement": "Activity", "setting": "[9]", "result": 66, "unit": "%"},
      {"measurement": "Activity", "setting": "[10]", "result": 100, "unit": "%"},
      {"measurement": "Activity", "setting": "[11]", "result": 82, "unit": "%"},
      {"measurement": "Activity", "setting": "[12]", "result": 91, "unit": "%"},
      {"measurement": "Activity", "setting": "[13]", "result": 74, "unit": "%"},
      {"measurement": "Activity", "setting": "[14]", "result": 66, "unit": "%"},
      {"measurement": "Activity", "setting": "[15]", "result": 90, "unit": "%"},
      {"measurement": "Stability", "setting": "[16]", "result": "Stable"},
      {"measurement": "Activity", "setting": "[17]", "result": 100, "unit": "%"},
      {"measurement": "Activity", "setting": "[18]", "result": 100, "unit": "%"},
      {"measurement": "Activity", "setting": "[19]", "result": 100, "unit": "%"},
      {"measurement": "Activity", "setting": "[20]", "result": 92, "unit": "%"},
      {"measurement": "Activity", "setting": "[21]", "result": 100, "unit": "%"},
      {"measurement": "Activity", "setting": "[22]", "result": 96, "unit": "%"},
      {"measurement": "Activity", "setting": "[23]", "result": 83, "unit": "%"},
      {"measurement": "Activity", "setting": "[24]", "result": 80, "unit": "%"}
    ]}
  ]
}
